Data taken from PMC9757636, “The effectiveness of newly synthesized quaternary ammonium salts differing in chain length and type of counterion against priority human pathogens” (Scientific Reports, 2022).
Marks after values point to notes of the source that are not given here.

Tests used:
[1] = test system: S. epidermidis ATCC 35984; test: MIC/MBC microdilution; format: cell-based, Staphylococcus epidermidis
S. epidermidis B374 [2] = test: MIC/MBC microdilution; format: cell-based, Staphylococcus epidermidis; conditions: S. epidermidis B374; for Minimal bactericidal concentration (*MBC): 99.9% reduction; for Minimal inhibitory concentration (MIC): 24 h, 37 °C, >90% growth inhibition
S. epidermidis SI8 = test: MIC/MBC microdilution; format: cell-based, Staphylococcus epidermidis
S. aureus ATCC 6538 = test: MIC/MBC microdilution; format: cell-based, Staphylococcus aureus; conditions: S. aureus ATCC 6538; for Minimal bactericidal concentration (*MBC): 99.9% reduction; for Minimal inhibitory concentration (MIC): 24 h, 37 °C, >90% growth inhibition
S. aureus MRSA R98 = test: MIC/MBC microdilution; format: cell-based, Staphylococcus aureus; conditions: for Minimal bactericidal concentration (*MBC): 99.9% reduction; for Minimal inhibitory concentration (MIC): 24 h, 37 °C, >90% growth inhibition
E. coli ATCC 11229 = test: MIC/MBC microdilution; format: cell-based, Escherichia coli; conditions: E. coli ATCC 11229; for MBC: 99.9% reduction, read-out: Minimal bactericidal concentration (*MBC); for MIC: 24 h, 37 °C, >90% growth inhibition, read-out: Minimal inhibitory concentration (MIC)
E. coli H64 = test: MIC/MBC microdilution; format: cell-based, Escherichia coli
P. aeruginosa ATCC 27853 = test: MIC/MBC microdilution; format: cell-based, Pseudomonas aeruginosa
P. aeruginosa PAO1 [3] = test: MIC/MBC microdilution; format: cell-based, Pseudomonas aeruginosa
[4] = Critical micelle concentration by conductometric measurements; format: physicochemical; conditions: aqueous solution, 25 °C
Outline: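 Specific conductivity of at least 15 concentrations per cationic surfactant measured at constant 25 °C without temperature compensation, conductometer calibrated with KCl standards. CMC taken as the discontinuity point in the conductivity vs concentration plot.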

[5] = test system: S. epidermidis ATCC 35984; test: Adhesion to stainless steel; format: cell-based, Staphylococcus epidermidis; conditions: 160 µM
P. aeruginosa PAO1 [6] = test: Adhesion to stainless steel; format: cell-based, Pseudomonas aeruginosa
S. epidermidis B374 [7] = test: Adhesion to polystyrene plate; format: cell-based, Staphylococcus epidermidis; conditions: 160 µM
Description: (§1) Adhesion analysis to polystyrene surfaces was determined according to the method of Rodrigues et al. with modifications. Polystyrene 96-well plates were incubated with the respective compound concentrations (10–1280 µM) for 4 h at 37 °C with 100 rpm shaking. The plates were then washed with miliQ and inoculated with 100 µL of bacterial suspension (OD = 0.4–0.6). Plates were incubated for 6 h at 37 °C with 100 rpm shaking. Wells were rinsed and fixed for 20 min at 60 °C. They were then […] with 0.1% crystal violet solution for 5 min. The wells were washed with miliQ until the unfixed dye was completely eluted. The absorbance at λ = 590 nm was measured using a reader (Bio-Rad Universal Hood II). The positive control was a surface not treated with QAS. Three independent trials were performed.

[8] = test system: S. epidermidis B374 biofilm; test: Biofilm eradication; format: cell-based, Staphylococcus epidermidis; conditions: 160 µM, 4 h
Description: (§2) Biofilm eradication assay was performed according to the method of Christensen et al. with modifications. A standardized bacterial (OD = 0.6) suspension of 100 µL was spotted into a 96-well polystyrene plate. They were incubated for 24 h at 37 °C. Cultures were removed, the plate was washed and then concentrations of QAS ([…]) were added, incubated for 4 h at 37 °C with 100 rpm shaking. The wells were washed with miliQ and fixed at 60 °C for 20 min. The wells were […] with 0.1% crystal violet solution for 5 min. The wells were washed with miliQ until the unfixed dye was completely eluted. The absorbance at λ = 590 nm was measured using a reader (Bio-Rad Universal Hood II). The positive control was an untreated biofilm. Three independent test trials were performed.

[9] = test system: P. aeruginosa PAO1 biofilm; test: Biofilm eradication; format: cell-based, Pseudomonas aeruginosa; conditions: 20 µM, 4 h
Description: as §2

[10] = test system: S. epidermidis B374 biofilm; test: Biofilm-oriented antiseptics test (BOAT); format: cell-based, Staphylococcus epidermidis; conditions: 640 µM
Excerpt: Colonies were then counted.

[11] = test system: Salmonella typhimurium TA100; test: Mutagenicity (Ames test); format: cell-based; conditions: for Number of colonies: ± SD
Outline: (§3)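 His-deficient TA98 and TA100 strains were plated with test compound on Davis minimal medium and incubated 48 h at 37 °C before revertant colonies were counted. Mutagenicity ratio is revertants with compound over spontaneous revertants (untreated control); MR ≥ 1.7 is read as mutagenic. Three replicate runs.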

[12] = test system: Salmonella typhimurium TA98; test: Mutagenicity (Ames test); format: cell-based; conditions: for Number of colonies: ± SD
Outline: as §3

S. epidermidis B374 [13] = test: Adhesion to stainless steel; format: cell-based, Staphylococcus epidermidis; conditions: Staphylococcus epidermidis, 1280 µM, ranges given over several strains
[14] = test system: S. epidermidis ATCC 35984; test: Adhesion to polystyrene plate; format: cell-based, Staphylococcus epidermidis; conditions: concentration not given
Description: as §1

P. aeruginosa PAO1 [15] = test: Adhesion to polystyrene plate; format: cell-based, Pseudomonas aeruginosa; conditions: concentration not given
Description: as §1

P. aeruginosa PAO1 [16] = test: Adhesion to glass; format: cell-based, Pseudomonas aeruginosa; conditions: concentration not given
[17] = test system: S. epidermidis ATCC 35984 biofilm; test: Biofilm eradication; format: cell-based, Staphylococcus epidermidis; conditions: 10 µM, 4 h
Description: as §2

[18] = 24 h, 37 °C, >90% growth inhibition

| Compound | Minimal bactericidal concentration (*MBC) (S. epidermidis B374 [2]) | Minimal inhibitory concentration (MIC) (S. epidermidis B374 [2]) | Minimal bactericidal concentration (*MBC) (S. aureus ATCC 6538) | Minimal inhibitory concentration (MIC) (S. aureus ATCC 6538) | Minimal bactericidal concentration (*MBC) (S. aureus MRSA R98) | Minimal inhibitory concentration (MIC) (S. aureus MRSA R98) | MBC (E. coli ATCC 11229) [µM] | MIC (E. coli ATCC 11229) [µM] | CMC [4] [mol/L] | reduction of adhesion to stainless steel [5] | reduction of adhesion to polystyrene (S. epidermidis B374 [7]) | biofilm eradication [9] | Number of colonies ([11]; ¼ MIC) | Mutagenicity index ([11]; ½ MIC) | Number of colonies ([11]; ½ MIC) | Mutagenicity index ([12]; ¼ MIC) | Number of colonies ([12]; ¼ MIC) | Mutagenicity index ([12]; ½ MIC) | Number of colonies ([12]; ½ MIC) | also measured |
| --- | --- | --- | --- | --- | --- | --- | --- | --- | --- | --- | --- | --- | --- | --- | --- | --- | --- | --- | --- | --- |
| CC(=O)[O-].CCCCCCCCCCCCCCCC(=O)N(C)CCC[N+](C)(C)C [AcC16] | 40 *40 µM | 40 *40 µM | 80 *80 µM | 80 *80 µM | 10 *10 µM | 10 *10 µM | 160 | 80 | 0.0016 | approximately 93% | approximately 44% | 50–60% | 107.5 ± 2.1 | 0.66 | 132.5 ± 13.4 | 0.93 | 23.7 ± 4.7 | 1.11 | 28.3 ± 6.4 | MBC ([1]; Staphylococcus epidermidis, ATCC35984, 99.9% reduction, read-out: Minimal bactericidal concentration (*MBC)): 640 µM; MIC ([1]; Staphylococcus epidermidis, ATCC35984, 24 h, 37 °C, >90% growth inhibition, read-out: Minimal inhibitory concentration (MIC)): 640 µM; MBC (S. epidermidis SI8; Staphylococcus epidermidis, 99.9% reduction, read-out: Minimal bactericidal concentration (*MBC)): 10 µM; MIC (S. epidermidis SI8; Staphylococcus epidermidis, 24 h, 37 °C, >90% growth inhibition, read-out: Minimal inhibitory concentration (MIC)): 10 µM; MIC (E. coli H64; Escherichia coli, H64, 24 h, E. coli H64, 24 h, 37 °C, >90% growth inhibition, read-out: Minimal inhibitory concentration (MIC)): 160 µM; MBC (E. coli H64; Escherichia coli, H64, E. coli H64, 99.9% reduction, read-out: Minimal bactericidal concentration (*MBC)): 320 µM; MIC (P. aeruginosa ATCC 27853; Pseudomonas aeruginosa, ATCC27853, 24 h, P. aeruginosa ATCC 27853, 24 h, 37 °C, >90% growth inhibition, read-out: Minimal inhibitory concentration (MIC)): > 1280 µM; MBC (P. aeruginosa ATCC 27853; Pseudomonas aeruginosa, ATCC27853, P. aeruginosa ATCC 27853, 99.9% reduction, read-out: Minimal bactericidal concentration (*MBC)): > 1280 µM; MBC (P. aeruginosa PAO1 [3]; Pseudomonas aeruginosa, 99.9% reduction, read-out: Minimal bactericidal concentration (*MBC)): > 1280 µM; MIC (P. aeruginosa PAO1 [3]; Pseudomonas aeruginosa, 24 h, 37 °C, >90% growth inhibition, read-out: Minimal inhibitory concentration (MIC)): > 1280 µM; reduction of adhesion to stainless steel (P. aeruginosa PAO1 [6]; P. aeruginosa PAO1, 160 µM): 58%; biofilm eradication [8]: 70–80%; cell survival in biofilm (BOAT) ([10]; 30 min): 30%; cell survival in biofilm (BOAT) ([10]; 60 min): 9.5%; Mutagenicity index ([11]; ¼ MIC): 0.54 |
| CCCCCCCCCCCCCCCC(=O)N(C)CCC[N+](C)(C)C.[Br-] [BrC16] | 10 *10 µM | 10 *10 µM | 320 *320 µM | 320 *320 µM | 320 *320 µM | 320 *320 µM | 1280 | 640 | 0.00073 | 77% | approximately 85% | 50–60% | 151.3 ± 3.5 | 1.06 | 134 ± 1 | 2.76 | 70.5 ± 12 | 1.84 | 47 ± 14.1 | Minimal bactericidal concentration (*MBC) ([1]; 99.9% reduction): 640 *640 µM; Minimal inhibitory concentration (MIC) [1, 18]: 640 *640 µM; Minimal bactericidal concentration (*MBC) (S. epidermidis SI8; 99.9% reduction): 10 *10 µM; Minimal inhibitory concentration (MIC) (S. epidermidis SI8; [18]): 10 *10 µM; Minimal bactericidal concentration (*MBC) (E. coli H64; E. coli H64, 99.9% reduction): 160 *160 µM; Minimal inhibitory concentration (MIC) (E. coli H64; E. coli H64, 24 h, 37 °C, >90% growth inhibition): 160 *160 µM; Minimal bactericidal concentration (*MBC) (P. aeruginosa ATCC 27853; P. aeruginosa ATCC 27853, 99.9% reduction): > 1280 * > 1280 µM; Minimal inhibitory concentration (MIC) (P. aeruginosa ATCC 27853; P. aeruginosa ATCC 27853, 24 h, 37 °C, >90% growth inhibition): > 1280 * > 1280 µM; Minimal bactericidal concentration (*MBC) (P. aeruginosa PAO1 [3]; 99.9% reduction): > 1280 * > 1280 µM; Minimal inhibitory concentration (MIC) (P. aeruginosa PAO1 [3]; [18]): > 1280 * > 1280 µM; inhibition at 1280 µM (S. epidermidis B374 [13]): 17 to 22%; inhibition at 1280 µM (P. aeruginosa PAO1 [6]; Pseudomonas aeruginosa, PAO1, read-out: inhibition of adhesion to stainless steel): 17 to 22%; reduction of adhesion to polystyrene [14]: did not reduce the adhesion; reduction of adhesion to polystyrene (P. aeruginosa PAO1 [15]): did not reduce the adhesion; reduction of adhesion to glass (P. aeruginosa PAO1 [16]): approximately 20%; biofilm destruction [17]: approximately 40%; mutagenicity index (MR) ([11]; base pair substitution type mutations, MR >= 1.7 indicates mutagenic potential): < 1.7; mutagenicity index (MR) ([12]; reading frame shift type mutation, MR >= 1.7 indicates mutagenic potential): above 1.7 |
